Data as given in patent US20110190274A1, “SALT OF, AND PROCESSES FOR THE PREPARATION OF, 1-ISOPROPYL-4-HEXAHYDRO-1H-1,4-DIAZEPINE” (GLAXO GROUP LIMITED, priority 2008, published 2011).
Counter-ions that a name gives are not always drawn. Like-named read-outs stand apart in the source and are kept apart here. One block for each compound: values may come before it.

Legend:
[1] = Gravimetric vapour sorption (GVS), water sorption/desorption isotherm at varying relative humidity; format: physicochemical; conditions: for water reversibly adsorbed and/or absorbed, and/or desorbed (GVS): relative to minimum mass; for weight gain relative to the minimum mass at 0% RH (GVS) / weight gain cf. minimum mass (GVS): 25° C.
Protocol: Gravimetric vapour sorption (GVS) data were acquired on a Hiden IGA-Sorp analyser model (available from Hiden Isochema Ltd., 231 Europa Boulevard, Gemini Business Park, Warrington WA5 7TN, United Kingdom), generating a full sorption/desorption isotherm using water vapour perfusion at 25° C. under nitrogen gas and at varying relative humidities (RH).
23 milligrams of a sample of the crystalline Form 1 of 1-isopropyl-4-{[4-(tetrahydro-2H-pyran-4-yloxy)phenyl]carbonyl}hexahydro-1H-1,4-diazepine mono-maleate prepared in Example 4 were placed into a clean and dry tared sample mesh pan and weighed using the IGA-Sorp internal balance.
(i) starting from about 30% RH and increasing to about 90% RH in increments of about 10% RH (results shown as the solid line in the middle and on the right of FIG. 5), and then (ii) decreasing from about 90% RH to 0% RH in increments of about 10% RH (results shown as the dotted line in FIG. 5), and then (iii) increasing from 0% RH to about 30% RH, in increments of about 5% RH up to ca. 10% RH, and then in increments of about 10% RH from ca. 10% to ca. 30% RH (results shown as the solid line on the left of FIG. 5).
The weight of the sample was recorded after each ca. 10% RH increment. The point of equilibrium, after each ca. 10% RH increment, was automatically determined using a 97% asymptote setting.
Gravimetric Vapour Sorption (GVS) data, on the solid 1-isopropyl-4-{[4-(tetrahydro-2H-pyran-4-yloxy)phenyl]carbonyl}hexahydro-1H-1,4-diazepine hydrochloride from Example 2, Part C (the “kinetic” solid hydrochloride salt produced by fast crystallisation, and before purification by recrystallisation), were acquired on a DVS-1 SMS model (available from Surface Measurement System (SMS)), generating a full sorption/desorption isotherm using water vapour perfusion at 25° C. under nitrogen gas and at varying relative humidities (RH).
22 milligrams of the specified solid hydrochloride salt sample were placed into a clean and dry tared sample glass pan and weighed using the DVS-1 internal balance.
(i) starting from about 30% RH and increasing to about 90% RH in increments of about 10% RH (results shown as the line in the middle and on the right of FIG. 6, going from ca. 7-8% weight gain cf. minimum mass at ca. 30% RH, to ca. 14-15% weight gain cf. minimum mass at ca. 90% RH), and then (ii) decreasing from about 90% RH to 0% RH in increments of about 10% RH (results shown as the line in FIG. 6, starting from ca. 14-15% weight gain cf. minimum mass at ca. 90% RH, going towards the left almost horizontally to ca. 14% weight gain at ca. 30% RH, and then going rapidly down to 0% weight gain at 0% RH), and then (iii) increasing from 0% RH to about 30% RH in increments of about 10% RH (results shown as the line on the bottom left of FIG. 6, going from 0% weight gain at 0% RH to about 2% weight gain at ca. 30% RH).
The weight of the sample was recorded after each ca. 10% RH increment. The point of equilibrium was automatically determined using a 0.02 dm/dt setting.

[2] = target: T1, histamine H3 receptor (Homo sapiens, UniProt Q9Y5N1); experiment: histamine H3 functional antagonist assay using membrane prepared from cultured H3 cells; format: biochemical
T1 construct: host or cells: cultured H3 cells (membranes)
T1 sequence (Q9Y5N1 whole entry): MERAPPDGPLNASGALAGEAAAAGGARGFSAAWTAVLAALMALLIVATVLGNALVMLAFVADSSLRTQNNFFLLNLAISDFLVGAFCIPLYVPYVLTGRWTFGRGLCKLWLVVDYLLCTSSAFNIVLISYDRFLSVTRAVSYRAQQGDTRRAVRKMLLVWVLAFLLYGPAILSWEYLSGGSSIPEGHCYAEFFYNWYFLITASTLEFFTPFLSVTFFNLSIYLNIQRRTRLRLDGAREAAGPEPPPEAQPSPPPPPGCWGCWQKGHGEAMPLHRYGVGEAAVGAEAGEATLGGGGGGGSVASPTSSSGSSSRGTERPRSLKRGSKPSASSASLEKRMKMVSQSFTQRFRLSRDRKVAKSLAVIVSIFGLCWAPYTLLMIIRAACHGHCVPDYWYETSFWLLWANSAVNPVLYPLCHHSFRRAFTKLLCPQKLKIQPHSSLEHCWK
Protocol: 1-Isopropyl-4-{[4-(tetrahydro-2H-pyran-4-yloxy)phenyl]carbonyl}hexahydro-1H-1,4-diazepine hydrochloride was tested using substantially the histamine H3 functional antagonist assay disclosed on pages 47-49, and in particular page 48 line 26 to page 49 line 7, of WO 2009/030716 A1 (Glaxo Group Limited). The result is expressed as a functional pKi (fpKi) value. A functional pKi is the negative logarithm of the antagonist equilibrium dissociation constant as determined in the H3 functional antagonist assay using membrane prepared from cultured H3 cells. The result given is an average of a number of experiments.

[3] = Karl Fischer analysis of water content; format: physicochemical; conditions: normal United Kingdom room humidity
Protocol: A Karl Fischer analysis of water content was carried out on the crystalline Form 1 mono-maleate salt prepared in Example 4 (at normal United Kingdom room humidity). This Karl Fischer analysis reported a water content of less than 0.1% w/w.

[4] = target: T2, histamine H3 receptor (Rattus norvegicus, UniProt Q9QYN8); conditions: following oral administration to the rat; cited from earlier work
T2 construct: from tissue; host or cells: rat cortex
T2 sequence (Q9QYN8 whole entry): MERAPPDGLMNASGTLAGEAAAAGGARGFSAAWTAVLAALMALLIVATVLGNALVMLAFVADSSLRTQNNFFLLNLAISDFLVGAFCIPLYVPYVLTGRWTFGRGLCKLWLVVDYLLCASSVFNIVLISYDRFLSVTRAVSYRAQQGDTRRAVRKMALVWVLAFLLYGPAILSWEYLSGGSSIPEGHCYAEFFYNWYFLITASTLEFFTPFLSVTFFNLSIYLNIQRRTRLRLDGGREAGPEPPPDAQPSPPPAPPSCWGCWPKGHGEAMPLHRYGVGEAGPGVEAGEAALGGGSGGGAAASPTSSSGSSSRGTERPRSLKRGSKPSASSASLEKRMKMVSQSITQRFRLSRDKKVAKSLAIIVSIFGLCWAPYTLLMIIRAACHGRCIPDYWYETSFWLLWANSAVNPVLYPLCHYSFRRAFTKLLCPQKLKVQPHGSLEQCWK

[5] = test system: rats; conditions: certain oral doses; cited from earlier work
[6] = test system: rodent; conditions: literature reports; cited from earlier work
[7] = Hygroscopicity and stability of the solid diazepine intermediate salts in air; format: physicochemical; conditions: for hygroscopicity of the solid: air at normal humidities, normal relative humidity (e.g. ca. 30%) at 25° C.
Source text: (i) The use of 1-isopropyl-hexahydro-1H-1,4-diazepine bis-trifluoroacetate allows the avoidance of the use of toxic dioxane in the preparation of 1-(isopropyl)-hexahydro-1H-1,4-diazepine dihydrochloride (from the BOC-protected precursor e.g. Intermediate 1), which preparation typically (see e.g. Intermediate 2 herein) uses HCl (e.g. 4M HCl) in dry dioxane (to avoid the water present in aqueous hydrochloric acid) in order to obtain solid 1-(isopropyl)hexahydro-1H-1,4-diazepine dihydrochloride. […] This hygroscopicity makes it difficult to quantify and weigh the dihydrochloride salt for the coupling reaction, and also can lead to the presence of undesired water in the coupling reaction (e.g. with DCI).

[8] = across the 0-90% relative humidity range at 25° C. under nitrogen

Structure (SMILES): CC(C)N1CCCN(C(=O)c2ccc(OC3CCOCC3)cc2)CC1 [Example 2 Part A, 1-Isopropyl-4-{[4-(tetrahydro-2H-pyran-4-yloxy)phenyl]carbonyl}hexahydro-1H-1,4-diazepine]
- water reversibly adsorbed and/or absorbed, and/or desorbed (GVS) [1, 8]: 0.4-0.5 % w/w

Structure (SMILES): CC(C)N1CCCN(C(=O)c2ccc(OC3CCOCC3)cc2)CC1.O=C(O)/C=C\C(=O)O [Example 4, 1-Isopropyl-4-{[4-(tetrahydro-2H-pyran-4-yloxy)phenyl]carbonyl}hexahydro-1H-1,4-diazepine mono-maleate salt (crystalline Form 1)]
- water content (Karl Fischer) [3]: less than 0.1 % w/w

Structure (SMILES): CNC(=O)c1ccc(Oc2ccc3c(c2)CCN(C2CCC2)CC3)nc1 [GSK189254]
- ex vivo binding in the rat cortex [4]: inhibited
- performance in cognition paradigms [5]: improved performance

Structure (SMILES): CC(C)(C)CCC#C[C@@H]1C[C@H]1c1c[nH]cn1 [GT-2331]
- cognitive effect in rodent models [6]: cognitive enhancing properties

Structure (SMILES): O=C(c1ccc(OCCCc2cnc[nH]2)cc1)C1CC1 [ciproxifan]
- cognitive effect in rodent models [6]: cognitive enhancing properties

Structure (SMILES): NC(=NCc1ccc(Cl)cc1)SCCCc1cnc[nH]1 [clobenpropit]
- cognitive effect in rodent models [6]: cognitive enhancing properties

Structure (SMILES): S=C(NC1CCCCC1)N1CCC(c2cnc[nH]2)CC1 [thioperamide]
- cognitive effect in rodent models [6]: cognitive enhancing properties

Further lines, results first:

- Ki ([2]; 12 experiments, read-out: range of measured fpKi values): 0.501 to 20 nM
- Ki ([2]; mean of 12 experiments, read-out: functional pKi (fpKi), H3 antagonism (converted)): ~5.01 nM
- water sorption compared with crystalline Form 1 mono-maleate (GVS) [1, 8]: higher quantities of water
- water reversibly adsorbed and/or absorbed, and/or desorbed (GVS) [1, 8]: 14-15 % w/w
- weight gain relative to the minimum mass at 0% RH (GVS) ([1]; at about 30% RH, start of first sorption): 7-8 % w/w
- weight gain relative to the minimum mass at 0% RH (GVS) ([1]; at about 90% RH, end of first sorption): 14-15 % w/w
- weight gain cf. minimum mass (GVS) ([1]; at ca. 30% RH on desorption from ca. 90% RH): ca. 14%
- weight gain cf. minimum mass (GVS) ([1]; at ca. 30% RH on re-sorption from 0% RH): about 2%
Structure (SMILES): CC(C)N1CCCN(C(=O)c2ccc(OC3CCOCC3)cc2)CC1.Cl [Example 2 Part C, 1-Isopropyl-4-{[4-(tetrahydro-2H-pyran-4-yloxy)phenyl]carbonyl}hexahydro-1H-1,4-diazepine hydrochloride]

- hygroscopicity of the solid [7]: very hygroscopic
Structure (SMILES): CC(C)N1CCCNCC1.Cl.Cl [Intermediate 2, 1-Isopropyl-hexahydro-1H-1,4-diazepine dihydrochloride]

- stability of the solid [7]: long-term stability
- hygroscopicity of the solid [7]: substantially non-hygroscopic
Structure (SMILES): CC(C)N1CCCNCC1 [Intermediate 3, 1-Isopropyl-hexahydro-1H-1,4-diazepine bis-trifluoroacetate salt]
